Laboratory results reported in PMC7997411, “Discovery and Optimization of Selective Inhibitors of Meprin α (Part II)” (Pharmaceuticals, 2021).

How the values were obtained:
ADAM10 = target: T1, ADAM10 (Homo sapiens, UniProt O14672); assay: ADAM10 assay; type: biochemical
T1 construct: purchased R&D Systems 936-AD
T1 sequence (O14672 214-748): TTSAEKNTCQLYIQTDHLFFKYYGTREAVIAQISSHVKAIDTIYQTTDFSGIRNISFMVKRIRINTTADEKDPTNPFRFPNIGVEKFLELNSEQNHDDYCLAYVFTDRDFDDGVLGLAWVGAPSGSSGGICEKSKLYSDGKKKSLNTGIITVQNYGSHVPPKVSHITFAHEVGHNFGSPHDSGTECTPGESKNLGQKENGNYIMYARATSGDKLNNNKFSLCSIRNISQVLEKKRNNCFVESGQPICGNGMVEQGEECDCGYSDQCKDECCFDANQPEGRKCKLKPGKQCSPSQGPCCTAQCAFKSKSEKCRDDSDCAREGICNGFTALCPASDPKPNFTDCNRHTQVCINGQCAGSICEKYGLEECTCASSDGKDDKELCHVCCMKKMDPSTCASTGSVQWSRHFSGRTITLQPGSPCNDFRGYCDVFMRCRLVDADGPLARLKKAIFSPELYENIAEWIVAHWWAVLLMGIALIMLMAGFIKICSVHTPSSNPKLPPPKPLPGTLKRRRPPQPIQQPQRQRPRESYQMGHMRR
Experimental: All common chemicals were purchased from Sigma.
Both assays followed the same general protocol. […] After 30 min incubation at RT, the reactions were started by addition of 2.5 µL of 2× solutions of substrate (R&D Systems cat#: ES010, Mca-KPLGL-Dpa-AR-NH2, 20 µM). […] All compounds were tested in 10-point, 1:3 serial dilutions dose-response format starting with highest concentration of 100 µM. IC50 values were determined using non-linear regression analysis using the GraphPad Prism 8.0 suite of programs.

meprin α = target: T2, meprin α (Homo sapiens, UniProt Q16819); assay: Kinetic parameters of meprin α mediated proteolysis in the presence of SR24717; type: biochemical
T2 construct: Strep-tag; made in house; host or cells: BTI-TN-5B1-4 insect cells (baculovirus, amplified in Sf9)
T2 sequence (Q16819 66-746): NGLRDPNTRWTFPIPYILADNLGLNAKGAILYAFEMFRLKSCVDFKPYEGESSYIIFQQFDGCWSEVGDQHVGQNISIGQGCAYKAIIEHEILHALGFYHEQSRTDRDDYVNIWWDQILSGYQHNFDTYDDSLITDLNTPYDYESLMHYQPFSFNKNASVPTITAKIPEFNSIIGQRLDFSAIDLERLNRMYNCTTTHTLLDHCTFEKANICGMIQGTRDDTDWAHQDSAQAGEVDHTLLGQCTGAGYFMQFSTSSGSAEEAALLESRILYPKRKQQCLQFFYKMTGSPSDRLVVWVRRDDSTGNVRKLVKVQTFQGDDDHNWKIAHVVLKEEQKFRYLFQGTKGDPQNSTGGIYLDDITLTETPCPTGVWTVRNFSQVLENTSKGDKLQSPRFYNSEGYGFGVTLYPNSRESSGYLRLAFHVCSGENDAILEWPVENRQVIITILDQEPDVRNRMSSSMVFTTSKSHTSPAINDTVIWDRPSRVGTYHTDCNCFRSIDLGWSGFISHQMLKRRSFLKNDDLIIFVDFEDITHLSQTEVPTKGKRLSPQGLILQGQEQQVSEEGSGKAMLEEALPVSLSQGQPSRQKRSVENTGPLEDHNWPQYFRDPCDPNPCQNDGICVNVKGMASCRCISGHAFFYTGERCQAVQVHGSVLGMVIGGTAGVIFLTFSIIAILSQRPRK
Experimental: Substrate stock solutions were prepared at various concentrations in HTS assay buffer (50 mM HEPES, 0.01% Brij-35, pH 7.5). Assays were conducted by incubating a range of substrate (2–50 µM) and SR24717 concentrations (0–1000 nM) with 1.3 nM meprin α at 25 °C. Fluorescence was measured on a multimode microplate reader Synergy H1 (Biotek Instruments, Winooski, VT, USA) using λexcitation = 324 nm and λemission = 393 nm. Rates of hydrolysis were obtained from plots of fluorescence versus time, using data points from only the linear portion of the hydrolysis curve. The slope from these plots was divided by the fluorescence change corresponding to complete hydrolysis and then multiplied by the substrate concentration to obtain rates of hydrolysis in units of μM/s. Kinetic parameters were calculated by non-linear regression analysis using the GraphPad Prism 8.0 suite of programs.

IC50 (ADAM10): > 100000 nM
Ki (meprin α; global fit to the competitive model of inhibition): 301 nM
mode of inhibition of meprin α (meprin α; varying substrate concentration): competitive
Compound: COc1cc(OC)nc(SCc2nnc(SCC(=O)NO)n2-c2ccc(N(C)C)cc2)n1 [SR24717]
